From patent US20260167614A1, “IDENTIFICATION OF SMALL MOLECULES THAT RECRUIT AND ACTIVATE RNASE L” (UNIVERSITY OF FLORIDA RESEARCH FOUNDATION, INCORPORATED, priority 2022, published 2026) come the findings set out here.

One series deals with pre-miR-21. Briefly: In vitro C-Chem-CLIP. The class given is binding. The following applies: 32P-labeled pre-miR-21; 8 at 5 μM; 7 at 1, 5, 20 or 100 μM. Here is the method:
Direct target occupancy was further verified using C-Chem-CLIP. In this assay, the RNA-binding module was conjugated to a diazirine cross-linking module and an alkyne handle for purification, affording Chem-CLIP probe 8 (FIG. 8A).^18 Radioactively labeled pre-miR-21 was incubated with a constant concentration of 8 and increasing amounts of 7. After cross-linking by irradiation with UV light, the amount of pre-miR-21 pulled down by 8 was measured by its radioactive signal. If the two compounds (7 and 8) share the same binding site, the amount of pre-miR-21 in the pulled down fraction is depleted.
In Vitro C-Chem-CLIP. Growth medium (RPMI 1640 medium supplemented with 300 mg/L Lglutamine & 25 mM HEPES; Corning, catalog #10-041-CV)] was inactivated by heating to 95° C. for 10 min followed by slowly cooling to room temperature. […]
Copper-catalyzed click chemistry^10 was used to click the probes in each sample to biotinazide (1265-5, Click Chemistry Tools). […] Radioactive signal from both the bound RNA on the magnetic beads and the unbound RNA in the wash solutions were measured using a Beckman […] Coulter LS6500 Liquid Scintillation Counter. The percentage pulldown by Chem-CLIP probe was calculated according to equation 2: […]

Another series addresses T1, pre-miR-21 and RNase L (Homo sapiens, UniProt Q05823, H672N).
T1 construct: GST (N, cleaved yes); made in house; host or cells: BL21 AI Escherichia coli
T1 sequence (Q05823 1-741 H672N): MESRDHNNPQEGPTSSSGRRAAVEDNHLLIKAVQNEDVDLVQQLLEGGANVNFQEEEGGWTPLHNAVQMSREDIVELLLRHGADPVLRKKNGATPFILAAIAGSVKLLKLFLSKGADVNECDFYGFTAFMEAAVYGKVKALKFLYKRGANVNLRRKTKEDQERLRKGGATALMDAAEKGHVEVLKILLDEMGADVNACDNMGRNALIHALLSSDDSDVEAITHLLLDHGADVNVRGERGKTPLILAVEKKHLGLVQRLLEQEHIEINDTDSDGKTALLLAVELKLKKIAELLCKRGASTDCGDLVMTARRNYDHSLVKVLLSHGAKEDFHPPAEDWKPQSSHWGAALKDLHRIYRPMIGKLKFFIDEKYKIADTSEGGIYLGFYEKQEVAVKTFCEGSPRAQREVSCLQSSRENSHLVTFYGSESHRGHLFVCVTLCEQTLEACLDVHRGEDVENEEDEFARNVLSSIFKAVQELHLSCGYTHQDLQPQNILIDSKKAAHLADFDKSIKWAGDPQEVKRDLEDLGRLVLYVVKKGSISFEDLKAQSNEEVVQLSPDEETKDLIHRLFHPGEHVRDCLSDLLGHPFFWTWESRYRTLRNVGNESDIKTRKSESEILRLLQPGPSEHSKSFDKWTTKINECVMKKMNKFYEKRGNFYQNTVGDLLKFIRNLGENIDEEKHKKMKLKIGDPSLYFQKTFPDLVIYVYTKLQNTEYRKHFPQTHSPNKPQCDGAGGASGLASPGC
Briefly: Co-immunoprecipitation of pre-miR-21 and RNase L. The class given is binding. Conditions: WT 32P-pre-miR-21, inactive RNase L. Here is the method:
Co-Immunoprecipitation of pre-miR-2I and RNase L. Approximately 20,000 cpm of 32P 5′-end labeled WT or mutant pre-miR-21 or an RNA construct where the A-bulge was mutated to a base pair (5′-[…] UGGGCUGU-3′) was folded in 1× RNase L Assay Buffer for 1 min at 95° C. and cooled on ice for 10 min. Following cooling, β-mercaptoethanol (7 mM), ATP (50 μM), and MgCl2 (1 mM) were added to the solution. The solution was aliquoted, and compounds were incubated in solution for 15 min (1% DMSO final concentration). […] Beads were then washed with 1×PBS supplemented with 0.02% (v/v) Tween-20. Radioactive signal in the supernatant and associated with the beads was quantified by a Beckman Coulter LS6500 Liquid Scintillation Counter. Relative RNA enrichment was calculated by comparing the radioactive signal associated with beads compared to the total radioactive signal from the beads plus the supernatant.

The nature of series [1]: RiboTAC cellular uptake quantification. Format: in vitro ADME. The following applies: human, MDA-MB-231 cells; 5 μM in culture medium. The procedure:
(§1) A time-course for RiboTAC degradation of pre-miR-21 was completed and compared to its cellular permeability. […] Additionally, degradation of pre-miR-21 is first detectable after 48 h of treatment with 7 (FIG. 10B).
(§2) RiboTAC Cellular Uptake Quantification. MDA-MB-231 cells were cultured as described in “Cell Culture” with a final cell density of 13,500 cells per well. Cells were treated with 7 (5 μM) for 0, 0.25, 0.5, 0.75, 1, 2, 3, 6, 12, 24, and 48 hours. Following treatment, cells were rapidly washed with 1×PBS to remove any unincorporated compound. Cells were then detached using 75 μl trypsin, immediately homogenized and flash frozen. The cell homogenate was analyzed using a Sciex 6500 mass spectrometer operated in multiple reaction monitoring mode with the transition m/z=1078.3/900.3. Homogenate drug levels were determined by comparison to a standard curve prepared in untreated cell homogenate. Calculated concentrations, (ng drug)/(ml homogenate) or μM drug inside cell, were fit to a one-phase association model using GraphPad Prism.

A further series deals with MDA-MB-231 cells. Briefly: RiboTAC cellular uptake quantification. The class given is in vitro ADME. Here is the method:
as §1, §2

The half-life is how long it takes for the measured level to halve.

Regarding `CNC(=O)[C@H](c1ccccc1)N(C)Cc1ccc(-c2cccc(-c3sccc3NC(=O)CCOCCOCCOCCC(=O)NCCN3CCN(c4ccc5nc(-c6c(N)c7c(F)cccc7[nH]c6=O)[nH]c5c4)CC3)c2)cc1` [RiboTAC 7, (S)—N-(2-(4-(2-(4-amino-5-fluoro-2-oxo-1,2-dihydroquinolin-3-yl)-1H-benzo[d]imidazol-6-yl)piperazin-1-yl)ethyl)-3-(2-(2-(3-((2-(4′-((methyl(2-(methylamino)-2-oxo-1-phenylethyl)amino)methyl)-[1,1′-biphenyl]-3-yl)thiophen-3-yl)amino)-3-oxopropoxy)ethoxy)ethoxy)propanamide], the “amount of pre-miR-21 cross-linked to Chem-CLIP probe 8 in competition” value in the series with pre-miR-21 is on record as “dose-dependently reduced the amount of pre-miR-21 cross-linked to 8”. Besides, on pre-miR-21 and RNase L, the “co-immunoprecipitation of RNA with RNase L” value was “pulled down with RNase L”. The same compound gave a half-life at 5 μM in series [1] of 144 min. In the series on MDA-MB-231 cells (5 μM in culture medium), the “time to reach plateau of cellular accumulation” value is “about 8 h”. The compound also gave a concentration inside cells with MDA-MB-231 cells (after 48 h treatment with 5 μM in culture medium) of 3.6 ± 1.2 µM.
